The values that follow come from patent US8835467B2, “SIR2 regulation” (Albert Einstein College of Medicine of Yeshiva University, priority 2003, dated 2014).

A value given as a limit tells only on which side of the number the result lay.

Experiment [1] concerns the target T1, Yeast SIR2p (Saccharomyces cerevisiae, UniProt P06700).
T1 construct: made in house
Put plainly: SIR2 deacetylation assay (p53 peptide, HPLC of ADPR and 3′-O-acetyl-ADPR). In kind it is biochemical. The procedure: (§1) After 2 hours, aliquots of 10 μL removed at 0, 30, 60, 90 and 120 min. Each aliquot was combined with 50 μL 50 mM ammonium acetate pH 5.0 to quench and assayed by HPLC for deacetylation products and NAD^+. The chromatograms (260 nm) were obtained using 50 mM ammonium acetate pH 5.0 as eluant on a semi-preparative Waters C-18 column (2.0 mL/min flow rate). Peaks for ADPR and 3′-O-Acetyl-ADPR were quantified by integration. The peak for NAD^+ was collected and radiation counted.
(§2) Reactions were as above but base reactions contained 5 mM of pyrazinamide, isonicotinamide, thionicotinamide, or benzamide. Reactions were carried out (2 hours for AF2 and yeast enzymes and 3 hours for mouse enzyme) at 37° C. and quenched by addition of 80 μL 50 mM ammonium acetate pH 5.0. Product formation was quantified by HPLC. […] Rates were compared with controls lacking added base.

Experiment [2] concerns the target T2, Mouse SIR2 enzyme (SIR2α) (Mus musculus, UniProt Q923E4).
T2 construct: purchased Upstate Group
T2 sequence (Q923E4 1-737): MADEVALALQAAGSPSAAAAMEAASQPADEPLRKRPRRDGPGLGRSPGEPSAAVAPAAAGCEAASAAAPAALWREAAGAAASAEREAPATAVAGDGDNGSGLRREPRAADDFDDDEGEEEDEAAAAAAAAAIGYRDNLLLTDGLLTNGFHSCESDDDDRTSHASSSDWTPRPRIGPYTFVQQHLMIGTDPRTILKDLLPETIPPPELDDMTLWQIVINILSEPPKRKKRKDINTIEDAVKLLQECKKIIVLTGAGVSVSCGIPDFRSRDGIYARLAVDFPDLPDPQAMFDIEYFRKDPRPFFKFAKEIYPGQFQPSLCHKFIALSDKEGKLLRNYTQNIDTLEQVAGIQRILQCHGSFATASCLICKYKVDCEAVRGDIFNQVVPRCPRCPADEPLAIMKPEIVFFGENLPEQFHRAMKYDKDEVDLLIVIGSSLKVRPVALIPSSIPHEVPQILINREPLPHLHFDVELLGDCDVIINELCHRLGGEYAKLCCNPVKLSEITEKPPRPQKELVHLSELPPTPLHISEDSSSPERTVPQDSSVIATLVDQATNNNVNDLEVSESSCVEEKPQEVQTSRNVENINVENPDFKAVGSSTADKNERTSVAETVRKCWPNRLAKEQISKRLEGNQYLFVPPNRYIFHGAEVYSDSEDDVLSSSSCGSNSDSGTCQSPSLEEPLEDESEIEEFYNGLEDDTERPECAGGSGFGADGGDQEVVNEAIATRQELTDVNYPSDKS
The experiment is described as above. Format: biochemical. On the procedure: as §1, §2

Experiment [3] deals with T3, Yeast Sir2 (Saccharomyces cerevisiae, UniProt P06700). Put plainly: Sir2 catalyzed base exchange with H4 N-terminal peptide. Format: biochemical. On the procedure:
(§3) Measurements were performed by methods described in Sauve and Schramm (2003) with the H4N-terminal peptide (AGG(AcK)GG(AcK)GMG(AcK)VGA(AcK)RHSC) (Imai et al., 2000) as substrate.

For experiment [4], the system named is Sir2-dependent transcriptional silencing at the silent mating-type loci (HMR, HML). Put plainly: Silent mating-type locus reporter silencing, spot assay. In kind it is cell-based, yeast. On the procedure: The photographs were taken after 2 to 3 days incubation. […] Isogenic strains UCC4562 (DOT1) and UCC4554 (dot1Δ) (Singer et al., 1998) are shown in each panel (top and bottom rows, respectively). […] The phenotype of strain CCFY10028 (top row) is compared to an isogenic sir2 derivative (bottom row). The sir2 deletion strain was generated by PCR-mediated gene disruption using a Nat-MX selectable marker (Tong et al., 2004).
The deletion strains were generated by PCR-mediated gene disruption using a Nat-MX selectable marker (Tong et al., 2004). Silencing at TEL-VR::URA3 is reported by survival on FOA-containing media and at HMR::TRP1 is detected by reduced growth on media lacking tryptophan.
The effect of isonicotinamide on Sir2 activity at the silent mating-type loci was measured in an HMR: TRP1 strain by growth on medium lacking tryptophan (FIG. 8b). Silencing of TRP1 decreases growth on Trp^− media.

Experiment [5] addresses T1, Yeast SIR2p. Put plainly: SIR2 nicotinamide base-exchange assay (p53 peptide, HPLC/14C). The settings on record: pH 7.6; read-out: Inhibition of exchange rate (%) yeast. Format: biochemical. On the procedure:
as §1

Experiment [6] deals with T3, Yeast Sir2. Briefly: Sir2 catalyzed deacetylation of H4 N-terminal peptide. In kind it is biochemical. The procedure: as §3
The next experiment addresses T4, Bacterial SIR2Af2 (Archaeoglobus fulgidus, UniProt O30124).
T4 construct: made in house
T4 sequence (O30124 1-253): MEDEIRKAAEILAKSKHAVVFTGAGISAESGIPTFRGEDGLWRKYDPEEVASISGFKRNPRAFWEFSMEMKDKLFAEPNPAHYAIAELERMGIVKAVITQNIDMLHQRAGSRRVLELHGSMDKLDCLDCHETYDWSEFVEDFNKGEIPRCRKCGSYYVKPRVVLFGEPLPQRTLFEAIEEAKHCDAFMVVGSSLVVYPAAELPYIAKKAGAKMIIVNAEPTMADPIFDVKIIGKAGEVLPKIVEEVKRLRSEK
Briefly: SIR2 deacetylation assay (p53 peptide, HPLC of ADPR and 3′-O-acetyl-ADPR). In kind it is biochemical, Archeaglobus fulgidus. On the procedure: After 2 hours, aliquots of 10 μL removed at 0, 30, 60, 90 and 120 min. Each aliquot was combined with 50 μL 50 mM ammonium acetate pH 5.0 to quench and assayed by HPLC for deacetylation products and NAD^+. The chromatograms (260 nm) were obtained using 50 mM ammonium acetate pH 5.0 as eluant on a semi-preparative Waters C-18 column (2.0 mL/min flow rate). Peaks for ADPR and 3′-O-Acetyl-ADPR were quantified by integration. The peak for NAD^+ was collected and radiation counted. […] Plots of deacetylation rate versus nicotinamide were fit to the equations described in the text.
Reactions were as above but base reactions contained 5 mM of pyrazinamide, isonicotinamide, thionicotinamide, or benzamide. Reactions were carried out (2 hours for AF2 and yeast enzymes and 3 hours for mouse enzyme) at 37° C. and quenched by addition of 80 μL 50 mM ammonium acetate pH 5.0. Product formation was quantified by HPLC. Thionicotinamide-NAD^+ was synthesized by CD38. Rates were compared with controls lacking added base.

Where [7] appears, read: 125 μM [carbonyl-14C]nicotinamide, increasing isonicotinamide.

T1 sequence (P06700 whole entry): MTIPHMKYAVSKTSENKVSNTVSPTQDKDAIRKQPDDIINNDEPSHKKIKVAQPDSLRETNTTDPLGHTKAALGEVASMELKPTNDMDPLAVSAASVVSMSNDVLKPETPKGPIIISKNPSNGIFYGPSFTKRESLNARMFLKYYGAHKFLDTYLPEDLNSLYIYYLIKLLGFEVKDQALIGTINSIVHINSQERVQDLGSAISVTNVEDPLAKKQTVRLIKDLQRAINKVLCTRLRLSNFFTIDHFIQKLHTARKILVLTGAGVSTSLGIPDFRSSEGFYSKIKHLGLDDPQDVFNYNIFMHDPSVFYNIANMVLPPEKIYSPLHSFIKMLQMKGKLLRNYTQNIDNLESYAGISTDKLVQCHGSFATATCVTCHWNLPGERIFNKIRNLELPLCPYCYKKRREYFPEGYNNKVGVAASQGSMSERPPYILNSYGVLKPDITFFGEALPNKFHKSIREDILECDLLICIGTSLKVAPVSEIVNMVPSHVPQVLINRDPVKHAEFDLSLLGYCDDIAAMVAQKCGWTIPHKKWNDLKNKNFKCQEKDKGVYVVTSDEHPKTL
T3 sequence (P06700 whole entry): as above

Take `NC(=O)c1ccncc1` [Isonicotinamide]: the inhibition – broadly, the percentage by which the read-out fell short of the control – at 5000 µM on Yeast SIR2p [1] amounted to 0%; in experiment [2] it was 18%; on Bacterial SIR2Af2, 4%. For the same molecule, the inhibition at 42000 µM against Yeast SIR2p [1] (pH 7.6) is 5%; at Yeast SIR2p [5] it was 40%. Also, the “effect on base exchange” value at Yeast Sir2 [3] (setting [7]) is recorded as “Base exchange is inhibited”. The inhibitory constant (Ki) (as a rule, a dissociation constant, usually derived from enzyme kinetics or from competition with a known ligand) at Yeast Sir2 [3] (read-out: Ki for isonicotinamide) worked out at 60 mM. Also, the “Sir2 activity at HML” value in experiment [4] (HML::URA3 strains UCC3515 and UCC4574, FOA-containing medium, data not shown) is listed as “increased Sir2 activity at HML”. Further, the “growth phenotype of isogenic sir2Δ strain” value in experiment [4] (HMR::TRP1, Trp− medium) was “Neither compound altered the growth phenotype”. In experiment [4] (HMR::TRP1, pnc1Δ strain, 25 mM isonicotinamide), the “reduction in growth on Trp− medium” value is 10^3 fold. Also, the “increase of deacetylation activity” value at Yeast Sir2 [6] (setting [7]) was not above 45%. In addition, the “effect on rates of deacetylation” value on Yeast Sir2 [6] (isonicotinamide to 100 mM, absence of nicotinamide) is listed as “do not substantially affect rates of deacetylation”.
